Assay results reported in US20240398973A1, “ENGINEERED ANTIBODY COMPOUNDS AND CONJUGATES THEREOF” (Eli Lilly and Company, priority 2017, published 2024).
Read-outs that look alike come from different tables or passages of the source. Where no end group is shown, it is not given here. The star is where a group is joined. hydrolyzed maleimide‑PEG linker = hydrolyzed maleimide-polyethylene glycol (PEG) linker, bound to the Lys side chain through an epsilon amide bond; For = O=C*

Tests used:
[1] = target: formyl peptide receptor 1 (FPR1) on primary human polymorphonuclear neutrophils (human) (UniProt P21462); assay: cell-based or functional assay
[2] = target: formyl peptide receptor 1 (FPR1) on primary human polymorphonuclear neutrophils (human) (UniProt P21462); assay: cell-based or functional assay; remark: listed apart in the source
human primary PMNs = assay: PMN reactive oxygen species (ROS) production, luminol-amplified chemiluminescence; format: cell-based; settings: for PMN ROS production: relative to 3000 nM fMLF, AUC 5 minutes (Table 8b)
Method: Production of ROS by human primary PMNs is measured using luminol-amplified chemiluminescence. Following isolation, PMNs are suspended at 1×10^6 cells/ml in HBSS containing calcium and magnesium (Gibco #14025-092) supplemented with 0.25% human serum albumin (Gemini Bio producst #800-124) and 50 uM Luminol (SigmaAldrich #123072-2.5G). 100 μl of cell suspension (1×10^5 total cells) is then distributed into each well of a 96-well plate suitable for fluorescence measurement (Greiner #655098) and temperature equilibrated to 37° C. for 5 minutes. Following equilibration, 10× solution of antibody conjugate is applied to the wells, achieving a 1× final concentration.
Immediately after the addition of antibody conjugate, chemiluminescence signal is recorded in a luminometer maintained at 37° C. with 0.01 seconds dwell time per well, 20 seconds total time between sequential plate readings and 45 minutes total run time (PerkinElmer EnVision Multilabel Plate Reader).

[3] = system: Mouse neutrophils purified from marrow; assay: Mouse PMN ROS production; format: cell-based; settings: relative to 10000 nM fMLF, AUC 5 minutes (Table 8c)
Method: Mouse neutrophils purified from marrow were exposed to formyl peptides or antibody conjugates and ROS production was measured using luminol amplified chemiluminescence essentially as described above.

[4] = system: primary human polymorphonuclear neutrophil (PMN); assay: PMN chemotaxis (transwell, modified Boyden chamber); format: cell-based; settings: relative to 100 nM fMLF, raw migration values (Table 4b)
Method: Chemotaxis is measured by observing primary human polymorphonuclear neutrophil (PMN) migration across transwell membranes (Corning #3415) towards antibody conjugates in a modified Boyden chamber assay. Approximately 2-4×10^5 cells from neutrophil-enriched preparations are seeded in upper transwell chambers on membranes with 3.0 um pores. The lower transwell chambers contain solutions of buffer alone and fMLF (N-formyl-Met-Leu-Phe peptide as positive control) and experimental antibody bioconjugates. […] Cell numbers are determined using standard curves. All data are transformed to percent relative to the maximal fMLF response for each individual experiment.

Q: What does the source list for fMLF (N-formyl-Met-Leu-Phe peptide)?
A: EC50 of PMN ROS production [1]: 0.154 µM; EC50 of PMN ROS production [2]: 0.334 µM

Q: Which EC50 of PMN ROS production [2] does the source give for TMab-G1-fMLFK-HC-124C-378C (antibody) here?
A: 0.164 µM

Q: What does the source list for “FRM-021: SEQ ID NO: 36; formyl-Met-Ile-Phe-Leu-Lys, lysine side chain epsilon amide to a hydrolyzed maleimide-PEG linker (For-MIFLK(hydrolyzed maleimide‑PEG linker))”?
A: PMN ROS production (human primary PMNs; 10 nM): 8.4 percentage; PMN ROS production (human primary PMNs; 30 nM): 34.4 percentage; PMN ROS production (human primary PMNs; 100 nM): 69.2 percentage; PMN ROS production (human primary PMNs; 300 nM): 84.4 percentage; PMN ROS production (human primary PMNs; 1000 nM): 91.2 percentage; PMN ROS production (human primary PMNs; 3000 nM): 102.9 percentage; PMN ROS production (human primary PMNs; 10000 nM): 91.7 percentage; EC50 (human primary PMNs; Best-Fit values in Graphpad PRISM (Table 8b)): 0.0512 µM; Mouse PMN ROS Production ([3]; 10 nM): 14.5 percentage; Mouse PMN ROS Production ([3]; 30 nM): 17.3 percentage; Mouse PMN ROS Production ([3]; 100 nM): 112.6 percentage; Mouse PMN ROS Production ([3]; 300 nM): 150.3 percentage; Mouse PMN ROS Production ([3]; 1000 nM): 180.2 percentage; Mouse PMN ROS Production ([3]; 3000 nM): 194.4 percentage; Mouse PMN ROS Production ([3]; 10000 nM): 186.9 percentage; PMN Chemotaxis Towards Formyl Peptides ([4]; 1 nM): 151.7%; PMN Chemotaxis Towards Formyl Peptides ([4]; 3 nM): 142.2%; PMN Chemotaxis Towards Formyl Peptides ([4]; 10 nM): 137.4%; PMN Chemotaxis Towards Formyl Peptides ([4]; 30 nM): 52.9%; PMN Chemotaxis Towards Formyl Peptides ([4]; 100 nM): 37.0%; PMN Chemotaxis Towards Formyl Peptides ([4]; 300 nM): 35.6%; PMN Chemotaxis Towards Formyl Peptides ([4]; 1000 nM): 22.8%
